How the values were obtained:
HeLa cells = format: cell-based, human; details: chloroquine 10 μM
Cos-7 cells = format: cell-based, monkey
J774 cells = format: cell-based

CCN(CC)CCCC(C)Nc1ccnc2cc(Cl)ccc12 (stereo not shown) [Chloroquine]
effect on Bcl-xL-DTR inhibition of poliovirus-induced cell death (HeLa cells): did not block the activity of Bcl-xL-DTR to inhibit poliovirus-induced cell death

brefeldin A
effect on anti-apoptosis activity of Bcl-xL-DTR (Cos-7 cells): does block the anti-apoptosis activity of Bcl-xL-DTR

CN[C@@H]1C[C@H]2O[C@@](C)([C@@H]1OC)n1c3ccccc3c3c4c(c5c6ccccc6n2c5c31)C(=O)NC4 [STS, staurosporine]
Cell death (%) (Cos-7 cells): 24% | apoptosis induced in J774 cells (J774 cells): died by apoptosis over the following 36 hours

Reference: patent US6737511B1 (priority 1999, dated 2004)
